Here are results for one compound from ChEMBL document CHEMBL1128909, “Catechol based inhibitors of 15-lipoxygenase” (Bioorg Med Chem Lett, 1996).

For assay [1], the target named is T1, Polyunsaturated fatty acid lipoxygenase ALOX12 (Homo sapiens, UniProt P18054).
T1 sequence (P18054 whole entry): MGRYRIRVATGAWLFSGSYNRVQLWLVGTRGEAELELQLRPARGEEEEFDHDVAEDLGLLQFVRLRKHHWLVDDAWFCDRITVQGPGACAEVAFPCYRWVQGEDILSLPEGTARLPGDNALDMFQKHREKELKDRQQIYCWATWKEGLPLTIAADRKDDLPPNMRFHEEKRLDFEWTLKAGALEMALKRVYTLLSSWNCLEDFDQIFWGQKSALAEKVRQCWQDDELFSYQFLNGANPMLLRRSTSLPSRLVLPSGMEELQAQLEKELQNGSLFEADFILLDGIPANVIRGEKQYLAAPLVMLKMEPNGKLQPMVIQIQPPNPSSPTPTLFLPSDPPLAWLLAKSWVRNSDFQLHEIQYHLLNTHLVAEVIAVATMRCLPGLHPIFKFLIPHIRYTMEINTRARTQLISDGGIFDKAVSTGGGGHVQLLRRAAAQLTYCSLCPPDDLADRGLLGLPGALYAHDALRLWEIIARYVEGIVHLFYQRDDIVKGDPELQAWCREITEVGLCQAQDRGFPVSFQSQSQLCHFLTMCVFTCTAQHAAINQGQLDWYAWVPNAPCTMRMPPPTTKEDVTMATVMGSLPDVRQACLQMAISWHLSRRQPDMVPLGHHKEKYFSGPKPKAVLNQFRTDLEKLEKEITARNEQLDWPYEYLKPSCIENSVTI
Description: Inhibitory activity against human platelet 12-lipoxygenase.

The target in assay [2] is T2, Polyunsaturated fatty acid 5-lipoxygenase (Rattus norvegicus, UniProt P12527).
T2 sequence (P12527 whole entry): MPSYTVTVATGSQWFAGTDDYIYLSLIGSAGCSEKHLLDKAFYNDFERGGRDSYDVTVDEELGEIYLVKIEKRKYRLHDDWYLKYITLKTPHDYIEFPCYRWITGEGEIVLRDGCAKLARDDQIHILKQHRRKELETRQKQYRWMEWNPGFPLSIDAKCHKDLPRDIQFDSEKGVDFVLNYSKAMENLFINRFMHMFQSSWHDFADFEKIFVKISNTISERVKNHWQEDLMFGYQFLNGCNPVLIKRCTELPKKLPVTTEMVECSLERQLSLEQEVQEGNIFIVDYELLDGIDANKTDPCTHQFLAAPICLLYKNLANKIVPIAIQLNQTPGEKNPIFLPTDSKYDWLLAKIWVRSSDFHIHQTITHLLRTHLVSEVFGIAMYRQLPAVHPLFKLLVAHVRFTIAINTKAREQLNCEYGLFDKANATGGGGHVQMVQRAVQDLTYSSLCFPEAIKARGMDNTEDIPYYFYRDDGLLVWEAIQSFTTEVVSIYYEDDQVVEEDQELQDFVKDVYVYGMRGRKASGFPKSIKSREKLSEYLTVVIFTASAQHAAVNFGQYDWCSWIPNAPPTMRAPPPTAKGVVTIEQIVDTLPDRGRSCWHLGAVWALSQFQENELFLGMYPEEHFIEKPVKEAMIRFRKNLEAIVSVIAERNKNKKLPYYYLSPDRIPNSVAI
The assay can be described thus: Inhibitory activity against rat basophilic leukemia cell 5-lipoxygenase (5-LO).

In general, IC50 refers to the concentration needed to halve the response being measured.

Consider `O=C(Nc1ccc(CCc2ccc(O)c(O)c2)cc1)c1ccccc1O`, for which the results for the concentration for half-maximal inhibition (IC50) in assay [1] and in assay [2] were 5 µM and 0.28 µM, respectively.
